Measurements from US20230107216A1, “PANTETHEINE DERIVATIVES AND USES THEREOF” (Comet Therapeutics, Inc., priority 2018, published 2023).
Read-outs that look alike come from different tables or passages of the source.

Tests used:
[1] = tested on: Venular Endothelial cells (HUVEC) (4H system); assay: BioMAP 4H system (IL-4 and histamine); assay type: cell-based, human; settings: 1 uM, procedure of Example 826
[2] = tested on: Peripheral blood mononuclear cells co-cultured with venular endothelial cells (HUVEC) (LPS system); assay: BioMAP LPS system; assay type: cell-based, human; settings: procedure of Example 827
[3] = tested on: Leigh Syndrome (LS) primary fibroblasts GM03672; assay: NADP+/NADPH (NADP/NADPH-Glo), Leigh fibroblasts GM03672; assay type: cell-based; settings: Homo sapiens, Fibroblast, 24h, read-out: Increase in Total NADP+ + NADPH
Method: Primary adherent fibroblasts were cultured in minimum essential medium (MEM) (Gibco, 25030081) supplemented with 2 mM L-Glutamine (Gibco, 25030081), 15% fetal bovine serum (FBS) (Gibco, 26400044) and 1% penicillin/streptomycin (Gibco, 5140122) at 37° C. and 5% CO2. Cells were collected for either passaging or experiment at ˜70-80% confluence. Cells were obtained by trypsinization and seeded in cell culture microplates either white plate (Thermo Fisher Scientific, 152028) for luminescent measurement or black plate (Thermo Fisher Scientific, 165305) for fluorescent based read out for different assays listed below. Cells were obtained by trypsinization and […] were seeded and allowed to adhere for 16-18 hours to have confluency around 70-80% in the cell well with culture media. After 24 hours prior to measurements (37° C., 5% CO2) media was changed to Dulbecco's Modified Eagle Medium (DMEM, Agilent Seahorse cat #103575-100) with the appropriate supplements as stated below.
Primary fibroblasts assayed were Propionic Acidemia (PA) (GM03590 Coriell Institute for Medical Research, Tsi 6337 Trans-Hit Bio), Methylmalonic Acidemia (MMA) (Tsi 5224 Trans-Hit Bio), Subnormal activation of pyruvate dehydrogenase complex (PDH) (GM01503 Coriell Institute for Medical Research), Very long-chain acyl-CoA dehydrogenase (VLCAD) (GM17475), Leigh Syndrome (LS) (GM03672, GM13411 Coriell Institute for Medical Research), Pyruvate Carboxylase Deficiency (PC) (GM00444 Coriell Institute for Medical Research). 10 μM of Compounds were added for 2 hours in PA, MMA lines and for 24h for the other fibroblast lines.
Assay was performed according to manufacturer instructions (NADP+/NADPH-Glo Assay Promega, G9082). Assay required a plate for total measurement of NADP+/NADPH and a plate for individual measurement of NADP+ or NADPH. For every assay a 12-point standard curve is prepared ranging from 400 nM to 0.625 nM. Media is removed and replaced with 50 μl of PBS for both assays.
For individual NADP+/NADPH measurements, 50 μl of 1% DTAB (Sigma, D5047) (cell lysis reagent) in 0.2N NaOH was added to the plates and 100 μl of lysate was split into two plates with 50 μl each from which ratio of NADP/NADPH can be calculated. 25 μl of 0.4N HCl were added to the NADP+ plates and both NADP+ and NADPH plates were heated at 60° C. for 15 minutes. The acid and heat treatment destroyed NADPH allowing individual NADP+ measurements while heating in basic conditions destroys NADP+ allowing individual NADPH measurement. After 15 minutes plates were allowed to come to room temperature and Trizma base (Sigma, T1699) was added to the NADP+ plates to neutralize the acid and HCl Trizma hydrochloride (Sigma, T2694) was added to the NADPH plates. The NADNADPH glo reagent was prepared by adding 125 μl of NAD cycling substrate, 125 μl of reductase, 125 μl of reductase substrate, 125 μl NAD cycling enzyme to a total of the 25 ml of NAD GLO reagent. 1:1 ratio of total volume of reagent was added to the individual NADP+, NADPH measurements (total 100 μl) and 50 μl were added for the total NAD/NADPH measurements. Luminescence was measured for 30-60 minutes within the linear range.
A total dead cell count was performed as described in Example 817 and only alive cells were used for analysis.

[4] = tested on: Peripheral blood mononuclear cells co-cultured with B-cells (BT system); assay: cells; settings: Homo sapiens, 72 h, read-out: % increase in sIL-6
[5] = tested on: Bronchial epithelial cells co-cultured with dermal fibroblast (BF4T system); assay: BioMAP BF4T system (TNFα and IL-4); assay type: cell-based, human; settings: Homo sapiens, 24 h; 10 uM; procedure of Example 830; read-out: % increase in VCAM-1
[6] = tested on: Peripheral blood mononuclear cells co-cultured with B-cells (BT system); settings: 1 uM; procedure of Example 829
[7] = tested on: Dermal fibroblasts (HDF3CGF system); assay: BioMAP HDF3CGF system (IL-1β, TNFα, IFNγ, EGF, bFGF, PDGF-BB); assay type: cell-based, human; settings: 10 uM; procedure of Example 833
[8] = tested on: Propionic Acidemia (PA) primary fibroblasts GM00371; assay: Mitochondrial respiration, XFe96 Extracellular Flux Analyzer (OCR/ECAR), PA fibroblasts GM00371; assay type: cell-based; settings: Homo sapiens, Fibroblast, read-out: Increase in Maximal Respiratory Capacity AUC
[9] = tested on: primary fibroblasts GM00649, GM06225, GM00612, GM00444, GM03672; assay: MMP, ROS and ATP multiplex (ArrayScan); assay type: cell-based; settings: Homo sapiens, Fibroblast; Leigh GM03672; procedure Example 838; 50 μM (table line r25); read-out: Decreased ROS by at least 10%
Method: Cell culture and treatments. Primary adherent fibroblasts were cultured in minimum essential medium (MEM) (Gibco, 25030081) supplemented with 2 mM L-Glutamine (Gibco, 25030081), 15% fetal bovine serum (FBS) (Gibco, 26400044) and 1% penicillin/streptomycin (Gibco, 5140122) at 37° C. and 5% CO2. Cells were collected for either passaging or experiment at ˜70-80% confluence. Cells were obtained by trypsinization and seeded at 10000 cells/well in cell culture microplates (Seahorse Bioscience, 101085-004) and allowed to adhere for 16 hours in culture media. After media was refreshed with DMEM (Agilent Seahorse 103575-100) supplemented with 1 mM glucose and 10% FBS (Gibco, 26400044). At the end of the incubation period, the cells were loaded with the relevant dye/antibody for each cell health marker. The assay provided simultaneous measurement of cell health parameters including cell count, ROS formation (DHE), mitochondrial membrane potential (MitoTracker®) and cellular ATP content (CellTiter-Glo®, Promega). The plates were then scanned using an automated fluorescent cellular imager, ArrayScan® (Thermo Scientific Cellomics). Assay conditions were optimized by one skilled in the art.
Primary cells used in this example were obtained from Coriell Institute for Medical Research and consisted of GM00649, MSUD (Maple Syrup Urine Disease) Tyle IA; GM06225, Kearns-Sayre Syndrome; GM00612, MSUD (Maple Syrup Urine Disease) Tyle II GM00444, Pyruvate Carboxylase Deficiency and GM03672, Leigh Syndrome.

[10] = tested on: Methylmalonic Acidemia (MMA) primary fibroblasts GM01673; assay: Mitochondrial respiration, XFe96 Extracellular Flux Analyzer (OCR/ECAR), MMA fibroblasts GM01673; assay type: cell-based; settings: Homo sapiens, Fibroblast, assay condition A (10 mM glucose, 2 mM L-glutamine, 1 mM pyruvate, 10% FBS), 50 μM, read-out: Increase in Maximal Respiratory Capacity AUC
Method: The effect of the compounds of the present disclosure on mitochondrial respiration was measured with a XFe96 Extracellular Flux Analyzer (Seahorse Bioscience, Agilent Technologies) and Oxygen consumption Rate (OCR) and Extracellular acidification rate (ECAR) determined.
Cell culture and treatments. Primary adherent fibroblasts were cultured in minimum essential medium (MEM) (Gibco, 25030081) supplemented with 2 mM L-Glutamine (Gibco, 25030081), 15% fetal bovine serum (FBS) (Gibco, 26400044) and 1% penicillin/streptomycin (Gibco, 5140122) at 37° C. and 5% CO2. Cells were collected for either passaging or experiment at ˜70-80% confluence. Cells were obtained by trypsinization and seeded at 20000 cells/well in cell culture microplates (Seahorse Bioscience, 101085-004) and allowed to adhere for 16 hours in culture media.
By profiling different primary cells and/or optimizing their culture media or environmental components one can select cell lines and/or conditions that are appropriate for the biological or disease model. In the present example, 24 hours prior to OCR and ECAR profiling, media was changed to Dulbecco's Modified Eagle Medium (DMEM, Agilent Seahorse 103575-100) with the appropriate supplements for the different primary cells (10 mM glucose, 2 mM L-glutamine, 1 mM pyruvate, 10% FBS; 1 mM glucose, 2 mM L-glutamine, 1 mM pyruvate, 10% FBS; 10 mM glucose, 10% FBS; 5 mM glucose 10% FBS; 1 mM glucose 10% FBS). Cells used in this example were: Propionic Acidemia (PA) (GM00371, GM03590 Coriell Institute for Medical Research, Tsi 6337, Tsi 4626, Tsi 3618 Trans-Hit Bio), Methylmalonic Acidemia (MMA) (GM01673, Coriell Institute for Medical Research, Tsi 5224 Trans-Hit Bio), Branched chain ketoacid dehydrogenase kinase (BCKDK) (GM00612, GM00649 Coriell Institute for Medical Research), Subnormal activation of pyruvate dehydrogenase complex (PDH) (GM01503 Coriell Institute for Medical Research), Very long-chain acyl-CoA dehydrogenase (VLCAD) (GM17475), Leigh Syndrome (LS) (GM03672, GM13411 Coriell Institute for Medical Research), Pyruvate Carboxylase Deficiency (PC) (GM00444 Coriell Institute for Medical Research), Glutaric Acidemia-I (GA) (GM10653), Friedreich's Ataxia (FXN) (GM04078 Coriell Institute for Medical Research, Huntington's disease (HD) (GM21756 Coriell Institute for Medical Research), Ornithine Transcarbamylase Deficiency (OTC) (GM12756 Coriell Institute for Medical Research), Kearns-Sayre Syndrome (KSS) (GM06225 Coriell Institute for Medical Research).
One hour before the assay, the cells were washed with freshly prepared unbuffered serum free-Seahorse XF Assay medium (Seahorse Bioscience, North America, USA, 103575-100) with the same supplements as for the previous 24 hour incubation.
After baseline measurements of OCR, cells were challenged with compounds of the present disclosure at different concentrations (10 to 50 μM) or vehicle (DMSO, 0.1%) and a post-compound baseline was recorded. OCR was measured after sequentially adding to each well 1 μg/ml oligomycin (inhibitor of ATP synthase Sigma-Aldrich, 753531), then maximal OCR was determined with carbonyl cyanide 4-(trifluoromethoxy) phenylhydrazone (FCCP, Sigma-Aldrich, C2920), (uncoupler of oxidative phosphorylation) and 0.5 μM of rotenone (Sigma-Aldrich, R8875) plus antimycin A (Sigma-Aldrich, A8674) (inhibitors of mitochondrial complex I and III) for determination of rotenone-antimycin insensitive respiration together with Hoechst for nuclear staining in situ when normalized to cell counts. After the analysis and nuclear staining, the XFp microplate was transferred to the Cytation 5, and the nuclear images were captured, the individual nuclei were identified and counted by BioTek Gen5 software. Data were expressed as pmol of O2 per minute and normalized by nuclear staining and baselined to pre-compound addition.
Assay conditions were as stated below.
Assay specifics on assay conditions are indicated below when readouts were normalized to cell counts. […]

[11] = tested on: primary fibroblasts (healthy controls and PA, MMA, BCKDK, PDH, VLCAD, LS, PC, GA, VLCFA, KSS, FXN, HD); assay: Measurement of ROS (H2DCFDA) in primary fibroblasts; assay type: cell-based, human; settings: Homo sapiens, Fibroblast; HD GM21756; procedure Example 812; Assay Condition C; read-out: Decreased ROS by at least 30%
In short: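 Patient and healthy-control primary fibroblasts switched to supplemented DMEM 24 h before assay, then treated with compound (10 μM) plus H2DCFDA (22 μM) for 2 h (PA, MMA lines) or 24 h (other lines). Kinetic fluorescence at 492/527 nm over 60 min; only live cells analysed.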

CC(C)(CO)[C@@H](O)C(=O)NCCC(=O)NCCSC(CC(=O)O)C(=O)O (stereo partly drawn) [Compound 46, 2-[(2-[3-[(2R)-2,4-dihydroxy-3,3-dimethylbutanamido]propanamido]ethyl)sulfanyl]butanedioic acid]
% increase in E-Selectin [1]: ≥10%
inhibition at 1 µM ([1]; Homo sapiens, HUVEC, 24 h, read-out: % decrease in E-Selectin): ≥ 10%
% increase in sPGE2 ([2]; 1 uM): ≥10%
activation at 10 µM ([2]; Homo sapiens, HUVEC, 24 h, 10 uM, read-out: % increase in sTNFα): ≥ 10%
activation at 10 µM ([3]; Leigh GM03672 P8, assay condition B (1 mM glucose, 2 mM L-glutamine, 1 mM pyruvate, 10% FBS)): ≥ 10%
activation at 10 µM [4]: ≥ 10%
activation at 10 µM [5]: ≥ 10%
% decrease in B-cell proliferation [6]: ≥20%
% decrease in sIL-2 [6]: ≥20%
% decrease in sTNFα [6]: ≥20%
% decrease in Collagen I [7]: ≥10%
activation at 50 µM ([8]; assay condition C (10 mM glucose, 10% FBS), 50 μM): ≥ 10%

CCOC(=O)C(=O)SCCNC(=O)CCNC(=O)[C@H](O)C(C)(C)COP(=O)(O)O [Compound 61]
inhibition at 50 µM [9]: ≥ 10%
activation at 50 µM [10]: ≥ 10%

CCC(=O)SCCNC(=O)CCNC(=O)[C@H](O)C(C)(C)CO [Compound 398, (2R)-2,4-dihydroxy-3,3-dimethyl-N-(2-[[2-(propanoylsulfanyl)ethyl]carbamoyl]ethyl)butanamide]
activation at 10 µM ([3]; Leigh GM03672 P9, assay condition A (10 mM glucose, 2 mM L-glutamine, 1 mM pyruvate, 10% FBS)): ≥ 10%
activation at 10 µM ([8]; assay condition D (1 mM glucose, 10% FBS), 10 μM): ≥ 10%
inhibition at 10 µM [11]: ≥ 30%
